Test results taken from patent US20210395210A1, “INHIBITION OF BACTERIAL CHAPERONIN SYSTEMS” (THE TRUSTEES OF INDIANA UNIVERSITY, priority 2018, published 2021).
Where two headings read alike, the source gives them in different places.

Key:
native MDH = molecular target: T1, native MDH (Sus scrofa, UniProt P00346); experiment: Counter-screen for inhibition of native MDH enzymatic activity; format: biochemical, pig; settings: for inhibition of native MDH enzymatic activity (in words): false-positive counter-screen
T1 construct: soluble pig heart MDH from Roche, product #10127248001; purchased Roche 10127248001; host or cells: pig heart
T1 sequence (P00346 25-338): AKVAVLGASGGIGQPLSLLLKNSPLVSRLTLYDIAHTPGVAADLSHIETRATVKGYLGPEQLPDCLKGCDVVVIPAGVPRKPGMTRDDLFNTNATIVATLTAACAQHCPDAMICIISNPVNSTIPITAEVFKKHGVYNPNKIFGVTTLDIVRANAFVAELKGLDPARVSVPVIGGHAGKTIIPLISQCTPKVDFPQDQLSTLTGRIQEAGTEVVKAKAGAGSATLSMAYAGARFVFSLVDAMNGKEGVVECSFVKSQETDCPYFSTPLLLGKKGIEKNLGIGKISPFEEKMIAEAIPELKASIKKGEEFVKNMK
Protocol: Reagent Preparations & Assay Protocol: This assay was performed as described above for the GroEL/ES-dMDH refolding assay; however, the assay protocol differed in the sequence of compound addition to the assay plates. The refolding reactions were allowed to proceed for 45 min at 37° C. in the absence of test compounds (complete refolding of MDH occurs), then quenched with the EDTA stock. Compounds were then pin-transferred into the plates after the EDTA quenching step; thus, compounds effects are only possible by inhibiting the fully-refolded MDH reporter substrate. […] A340 nm measurements were recorded at 0.5 minutes (start point) and at successive time points until the amount of NADH consumed reached ˜90% (end point, generally between 20-35 minutes). Compounds were tested in 8-point, 3-fold dilution series (62.5 μM to 29 nM during the reporter reaction) in clear, flat-bottom 384-well microtiter plates. DMSO was used as a negative control, and previously discovered native MDH inhibitors were used as positive controls. […] Results presented represent the averages of IC50 values obtained from at least quadriplicate (duplicate of duplicate) replicates.

[1] = system: Methicillin resistant S. aureus (MRSA) (ATCC BAA-44); experiment: Bacterial proliferation assay, MRSA; format: cell-based, Staphylococcus aureus; settings: Staphylococcus aureus
Source text: (§1) Bacterial Strains: Enterococcus faecium—(Orla-Jensen) Schleifer and Kilpper-Balz strain NCTC 7171 (ATCC 19434); Drug sensitive Staphylococcus aureus—Rosenbranch strain Seattle 1945 (ATCC 25923); Methicillin resistant S. aureus (MRSA)—Rosenbach strain HPV107 (ATCC BAA-44); Klebsiella Pneumonia—(Schroeter) Trevisan strain NCTC 9633 (ATCC 13883); Acinetobacter baumannii—Bouvet and Grimont strain 2208 (ATCC 19606); Pseudomonas aeruginosa—(Schroeter) Migula strain NCTC 10332 (ATCC 10145); Enterobacter cloacae—E. cloacae, subsp. cloacae (Jordan) Hormaeche and Edwards strain CDC 442-68 (ATCC 13047).
(§2) Growth Media: All bacteria were grown in Brain Heart Infusion (BHI) broth/agar (Becton, Dickinson and Company). All liquid cultures were grown in BHI media supplemented with 25 mg/L Ca^2+ and 12.5 mg/L Mg^2+ to mimic free physiological concentrations of these cations. A 10 mg/mL Ca^2+ stock solution was prepared by dissolving 3.68 g of CaCl2.2H2O in 100 mL of deionized water, and a 10 mg/mL Mg^2+ stock solution was prepared by dissolving 8.36 g of MgCl2.6H2O in 100 mL deionized water. Both stock solutions were filter-sterilized using 0.2 μm pore size cellulose-acetate filters. 2.5 mL of the sterile 10 mg/mL Ca^2+ stock and 1.25 mL of the sterile 10 mg/mL Mg^2+ stock solutions were added per 1 L of autoclaved BHI medium to obtain 25 mg/L Ca^2+ and 12.5 mg/L Mg^2+ ions, respectively.
(§3) General Assay Protocol: Stock bacterial cultures were streaked onto BHI agar plates and grown overnight at 37° C. Fresh aliquots of broth were inoculated with single bacterial colonies and the cultures were grown overnight at 37° C. with shaking (240 rpm) in cation adjusted BHI media. The following morning, the overnight cultures were sub-cultured (1:5 dilution) into fresh aliquots of cation adjusted BHI media and grown at 37° C. for 1-2 hours with shaking. After 2 h, cultures were diluted into fresh media to achieve final OD600 readings of 0.017. Aliquots of these diluted cultures (30 μL) were added to clear, flat-bottom, 384-well polystyrene plates that were stamped with 0.5 μL of test compounds in 20 μL media. […] Plates were sealed with “Breathe Easy” oxygen permeable membranes (Diversified Biotech) and left to incubate at 37° C. without shaking (stagnant assay). OD600 nm readings were taken at either 6-8 h (S. aureus, MRSA, K. pneumonia, E. cloacae, and P. aeruginosa) or 24 h (E. faecium and A. baumannii). A second set of baseline control plates were prepared analogously, but without any bacteria added, to correct for possible compound absorbance and/or precipitation. Plates were then read at 600 nm using a Molecular Devices SpectraMax Plus384 microplate reader. […] Results presented represent the averages of EC50 values obtained from at quadriplicate (duplicate of duplicate) replicates.

[2] = system: Acinetobacter baumannii (ATCC 19606); experiment: Bacterial proliferation assay, A. baumannii; format: cell-based
Source text: as §1, §2, §3

[3] = system: Enterobacter cloacae (ATCC 13047); experiment: Bacterial proliferation assay, E. cloacae; format: cell-based
Source text: as §1, §2, §3

[4] = log of IC50 (μM scale), with standard deviation, read-out: log(IC50) Native MDH Reporter (converted)
[5] = read-out: Biochemical Assay IC50 Native MDH Reporter
[6] = MRSA, OD600 at 6-8 h, read-out: Bacterial Proliferation EC50 S. aureus Resistant
[7] = MRSA, log of EC50 (μM scale), with standard deviation, read-out: log(EC50) Bacterial Proliferation Assay S. aureus Resistant (converted)
[8] = ATCC19606, OD600 at 24 h, read-out: Bacterial Proliferation EC50 A. baumannii
[9] = ATCC19606, log of EC50 (μM scale), with standard deviation, read-out: log(EC50) Bacterial Proliferation Assay A. baumannii (converted)
[10] = ATCC13047, OD600 at 6-8 h, read-out: Bacterial Proliferation EC50 E. cloacae
[11] = ATCC13047, log of EC50 (μM scale), with standard deviation, read-out: log(EC50) Bacterial Proliferation Assay E. cloacae (converted)
[12] = read-out: Bacterial Proliferation EC50 S. aureus Resistant
[13] = read-out: log(EC50) Bacterial Proliferation Assay S. aureus Resistant (converted)
[14] = ATCC19606, 24 h, read-out: Bacterial Proliferation EC50 A. baumannii
[15] = ATCC19606, read-out: log(EC50) Bacterial Proliferation Assay A. baumannii (converted)
[16] = ATCC13047, read-out: Bacterial Proliferation EC50 E. cloacae
[17] = ATCC13047, read-out: log(EC50) Bacterial Proliferation Assay E. cloacae (converted)
[18] = log of IC50 (μM scale), with standard deviation

| Compound | IC50 (native MDH; [4]) [µM] | IC50 (native MDH; [5]) [µM] | EC50 [1, 6] [µM] | EC50 [1, 7] [µM] | EC50 [2, 8] [µM] | EC50 [2, 9] [µM] | EC50 [3, 10] [µM] | EC50 [3, 11] [µM] | inhibition of native MDH enzymatic activity (in words) (native MDH) | EC50 [1, 12] [µM] | EC50 [1, 13] [µM] | EC50 [2, 14] [µM] | EC50 [2, 15] [µM] | EC50 [3, 16] [µM] | EC50 [3, 17] [µM] | log(IC50) Native MDH Reporter (native MDH; [18]) |
| --- | --- | --- | --- | --- | --- | --- | --- | --- | --- | --- | --- | --- | --- | --- | --- | --- |
| O=C(Nc1ccc(Sc2nc3ccccc3s2)c(Cl)c1)c1ccccc1 [Compound 19, N-(4-(Benzo[d]thiazol-2-ylthio)-3-chlorophenyl)benzamide] | > 63.1 | > 63 | > 100 | > 100 | > 100 | > 100 | > 100 | > 100 | – | – | – | – | – | – | – | – |
| O=C(Nc1cccc(Cl)c1)c1cc(Br)cc(Br)c1 [Compound 23, 3,5-Dibromo-N-(3-chlorophenyl)benzamide] | > 63.1 | > 63 | 12 | 11.7 | > 100 | > 100 | > 100 | > 100 | – | – | – | – | – | – | – | – |
| O=C(Nc1ccccc1)c1cccc(Br)c1O [Compound 14, 3-Bromo-2-hydroxy-N-phenylbenzamide] | > 63.1 | > 63 | 10 | 10 ± 1.7 | > 100 | > 100 | > 100 | > 100 | – | – | – | – | – | – | – | – |
| O=C(Nc1ccc(Sc2nc3ccccc3s2)c(Cl)c1)c1ccccc1O [Compound 4, N-(4-(Benzo[d]thiazol-2-ylthio)-3-chlorophenyl)-2-hydroxybenzamide] | > 63.1 | > 63 | 0.45 | 0.447 | > 100 | > 100 | > 100 | > 100 | – | – | – | – | – | – | – | – |
| O=C(Nc1ccc(Sc2nc3ccccc3s2)cc1)c1cc(Br)ccc1O [Compound 7, N-(4-(Benzo[d]thiazol-2-ylthio)phenyl)-5-bromo-2-hydroxybenzamide] | > 63.1 | > 63 | – | – | – | – | – | – | inactive against the reporter enzymes | 0.14 | 0.141 | > 100 | > 100 | > 100 | > 100 | – |
| O=C(Nc1ccc(Sc2nc3ccccc3s2)c(Cl)c1)c1cc(Br)cc(Br)c1O [Compound 1, N-(4-(Benzo[d]thiazol-2-ylthio)-3-chlorophenyl)-3,5-dibromo-2-hydroxybenzamide] | – | – | – | – | – | – | – | – | inhibit native MDH | 0.55 | 0.55 | 66 | 66.1 | > 100 | > 100 | 0.83 ± 0.25 |
| O=C(Nc1ccc(Sc2nc3ccccc3s2)cc1)c1cccc(Br)c1O [Compound 6, N-(4-(Benzo[d]thiazol-2-ylthio)phenyl)-3-bromo-2-hydroxybenzamide] | > 63.1 | > 63 | – | – | – | – | – | – | inactive against the reporter enzymes | 1.1 | 1.1 | 12 | 11.5 | > 100 | > 100 | – |
| O=C(Nc1ccccc1)c1cc(Br)ccc1O [Compound 15, 5-Bromo-2-hydroxy-N-phenylbenzamide] | > 63.1 | > 63 | 4.1 | 4.07 | > 100 | > 100 | > 100 | > 100 | – | – | – | – | – | – | – | – |
| O=C(Nc1ccc(Sc2nc3ccccc3s2)cc1)c1cccc(Br)c1 [Compound 21, N-(4-(Benzo[d]thiazol-2-ylthio)phenyl)-3-bromobenzamide] | > 63.1 | > 63 | – | > 100 | > 100 | > 100 | > 100 | > 100 | – | – | – | – | – | – | – | – |
| O=C(Nc1cccc(Cl)c1)c1cccc(Br)c1O [Compound 10, 3-Bromo-N-(3-chlorophenyl)-2-hydroxybenzamide] | > 63.1 | – | 2 | 2 | > 100 | > 100 | > 100 | > 100 | – | – | – | – | – | – | – | – |
| O=C(Nc1ccc(Sc2nc3ccccc3s2)c(Cl)c1)c1cc(Br)ccc1O [Compound 3, N-(4-(Benzo[d]thiazol-2-ylthio)-3-chlorophenyl)-5-bromo-2-hydroxybenzamide] | > 63.1 | > 63 | – | – | – | – | – | – | inactive against the reporter enzymes | 0.17 | 0.17 | > 100 | > 100 | > 100 | > 100 | – |
| O=C(Nc1ccc(Sc2nc3ccccc3s2)c(Cl)c1)c1cccc(Br)c1O [Compound 2, N-(4-(Benzo[d]thiazol-2-ylthio)-3-chlorophenyl)-3-bromo-2-hydroxybenzamide] | > 63.1 | > 63 | – | – | – | – | – | – | inactive against the reporter enzymes | 0.71 | 0.708 | 2.9 | 2.88 | > 100 | > 100 | – |
| O=C(Nc1ccc(Sc2nc3ccccc3s2)cc1)c1cc(Br)cc(Br)c1O [Compound 5, N-(4-(Benzo[d]thiazol-2-ylthio)phenyl)-3,5-dibromo-2-hydroxybenzamide] | – | – | – | – | – | – | – | – | inhibit native MDH | 0.52 | 0.525 | > 100 | > 100 | > 100 | > 100 | 0.92 ± 0.21 |
| O=C(Nc1cccc(Cl)c1)c1ccccc1O [Compound 12, N-(3-Chlorophenyl)-2-hydroxybenzamide] | > 63.1 | > 63 | 4.2 | 4.17 | > 100 | > 100 | > 100 | > 100 | – | – | – | – | – | – | – | – |
